According to patent US20230111310A1, “CARBOXYLIC ACID DERIVATIVE-SUBSTITUTED IMINO ARYL COMPOUND, PREPARATION METHOD THEREFOR, HERBICIDAL COMPOSITION AND USE THEREOF” (Qingdao Kingagroot Chemical Compound Co., Ltd., priority 2020, published 2023):

What was measured:
Experiment in all cases: Weeding effect in post-emergence stage
Format in all cases: in vivo
Echinochloa crusgalli = conditions: Dose 15 g/ha; for Weeding effect in post-emergence stage, Echinochloa crusgalli (level): fresh weight control rate level; for Weeding effect in post-emergence stage, Echinochloa crusgalli: level of fresh weight growth control rate
Procedure, shortened: (§1)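 Read-out is growth control rate, counted 3 weeks post-spray and averaged over three repeats. Greenhouse plants at the 2-3 leaf stage received spray-tower application at 500, 250, 125, 60, 30, 15 or 7.5 g/ha, with methyl oleate EC (1.5 liter/ha) and Tween 80 added.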

Setaria viridis = conditions: Dose 15 g/ha; for Weeding effect in post-emergence stage, Setaria viridis (level): fresh weight control rate level; for Weeding effect in post-emergence stage, Setaria viridis: level of fresh weight growth control rate
Procedure, shortened: as §1

Alopecurus japonicus = conditions: Dose 15 g/ha; for Weeding effect in post-emergence stage, Alopecurus japonicus (level): fresh weight control rate level; for Weeding effect in post-emergence stage, Alopecurus japonicus: level of fresh weight growth control rate
Procedure, shortened: as §1

Digitaria sanguinalis = conditions: Dose 15 g/ha; for Weeding effect in post-emergence stage, Digitaria sanguinalis (level): fresh weight control rate level; for Weeding effect in post-emergence stage, Digitaria sanguinalis: level of fresh weight growth control rate
Procedure, shortened: as §1

Abutilon theophrasti = conditions: Dose 15 g/ha; for Weeding effect in post-emergence stage, Abutilon theophrasti (level): fresh weight control rate level; for Weeding effect in post-emergence stage, Abutilon theophrasti: level of fresh weight growth control rate
Procedure, shortened: as §1

Eleusine indica = conditions: Dose 15 g/ha; for Weeding effect in post-emergence stage, Eleusine indica (level): fresh weight control rate level; for Weeding effect in post-emergence stage, Eleusine indica: level of fresh weight growth control rate
Procedure, shortened: as §1

COC(=O)C(C)SN=Cc1cc(-n2c(=O)n(C)c(=S)n(C)c2=O)c(F)cc1Cl (stereo not drawn) [Compound 692]
Weeding effect in post-emergence stage, Echinochloa crusgalli (level) (Echinochloa crusgalli): 5 (Level 5: growth control rate is above 85%) | Weeding effect in post-emergence stage, Setaria viridis (level) (Setaria viridis): 5 (Level 5: growth control rate is above 85%) | Weeding effect in post-emergence stage, Alopecurus japonicus (level) (Alopecurus japonicus): 5 (Level 5: growth control rate is above 85%) | Weeding effect in post-emergence stage, Digitaria sanguinalis (level) (Digitaria sanguinalis): 5 (Level 5: growth control rate is above 85%) | Weeding effect in post-emergence stage, Abutilon theophrasti (level) (Abutilon theophrasti): 5 (Level 5: growth control rate is above 85%) | Weeding effect in post-emergence stage, Eleusine indica (level) (Eleusine indica): 5 (Level 5: growth control rate is above 85%)

COC(=O)CCNC(=O)C(C)O/N=C/c1cc(-n2c(=O)cc(C(F)(F)F)n(C)c2=O)c(F)cc1Cl (stereo not drawn) [Compound 416]
Weeding effect in post-emergence stage, Echinochloa crusgalli (level) (Echinochloa crusgalli): 5 (Level 5: growth control rate is above 85%) | Weeding effect in post-emergence stage, Setaria viridis (level) (Setaria viridis): 5 (Level 5: growth control rate is above 85%) | Weeding effect in post-emergence stage, Alopecurus japonicus (level) (Alopecurus japonicus): 4 (Level 4: growth control rate is greater than or equal to 60% and less than 85%) | Weeding effect in post-emergence stage, Digitaria sanguinalis (level) (Digitaria sanguinalis): 5 (Level 5: growth control rate is above 85%) | Weeding effect in post-emergence stage, Abutilon theophrasti (level) (Abutilon theophrasti): 5 (Level 5: growth control rate is above 85%) | Weeding effect in post-emergence stage, Eleusine indica (level) (Eleusine indica): 5 (Level 5: growth control rate is above 85%)

CCOC(=O)[C@@H](C)O/N=C/c1cc(-n2c(=O)n(C)c(=S)n(C)c2=S)c(F)cc1Br [161(R)]
Weeding effect in post-emergence stage, Echinochloa crusgalli (Echinochloa crusgalli): 5 (Level 5: growth control rate is above 85%) | Weeding effect in post-emergence stage, Setaria viridis (Setaria viridis): 5 (Level 5: growth control rate is above 85%) | Weeding effect in post-emergence stage, Alopecurus japonicus (Alopecurus japonicus): 4 (Level 4: growth control rate is greater than or equal to 60% and less than 85%) | Weeding effect in post-emergence stage, Digitaria sanguinalis (Digitaria sanguinalis): 4 (Level 4: growth control rate is greater than or equal to 60% and less than 85%) | Weeding effect in post-emergence stage, Abutilon theophrasti (Abutilon theophrasti): 5 (Level 5: growth control rate is above 85%) | Weeding effect in post-emergence stage, Eleusine indica (Eleusine indica): 5 (Level 5: growth control rate is above 85%)

COC(=O)CSC(=O)[C@@H](C)O/N=C/c1cc(-n2c(=O)cc(C(F)(F)F)n(C)c2=O)c(F)cc1Cl [406(R)]
Weeding effect in post-emergence stage, Echinochloa crusgalli (level) (Echinochloa crusgalli): 5 (Level 5: growth control rate is above 85%) | Weeding effect in post-emergence stage, Setaria viridis (level) (Setaria viridis): 5 (Level 5: growth control rate is above 85%) | Weeding effect in post-emergence stage, Alopecurus japonicus (level) (Alopecurus japonicus): 5 (Level 5: growth control rate is above 85%) | Weeding effect in post-emergence stage, Digitaria sanguinalis (level) (Digitaria sanguinalis): 5 (Level 5: growth control rate is above 85%) | Weeding effect in post-emergence stage, Abutilon theophrasti (level) (Abutilon theophrasti): 5 (Level 5: growth control rate is above 85%) | Weeding effect in post-emergence stage, Eleusine indica (level) (Eleusine indica): 5 (Level 5: growth control rate is above 85%)

C[C@@H](O/N=C/c1cc(-n2c(=O)n(C)c(=S)n(C)c2=O)c(F)cc1Cl)C(=O)OCCCC(F)(F)F [12(R)]
Weeding effect in post-emergence stage, Echinochloa crusgalli (Echinochloa crusgalli): 5 (Level 5: growth control rate is above 85%) | Weeding effect in post-emergence stage, Setaria viridis (Setaria viridis): 5 (Level 5: growth control rate is above 85%) | Weeding effect in post-emergence stage, Alopecurus japonicus (Alopecurus japonicus): 5 (Level 5: growth control rate is above 85%) | Weeding effect in post-emergence stage, Digitaria sanguinalis (Digitaria sanguinalis): 5 (Level 5: growth control rate is above 85%) | Weeding effect in post-emergence stage, Abutilon theophrasti (Abutilon theophrasti): 5 (Level 5: growth control rate is above 85%) | Weeding effect in post-emergence stage, Eleusine indica (Eleusine indica): 5 (Level 5: growth control rate is above 85%)

CCCCCCCOC(=O)[C@@H](C)O/N=C/c1cc(-n2c(=O)cc(C(F)(F)F)n(C)c2=O)c(F)cc1Cl [205(R)]
Weeding effect in post-emergence stage, Echinochloa crusgalli (Echinochloa crusgalli): 5 (Level 5: growth control rate is above 85%) | Weeding effect in post-emergence stage, Setaria viridis (Setaria viridis): 5 (Level 5: growth control rate is above 85%) | Weeding effect in post-emergence stage, Alopecurus japonicus (Alopecurus japonicus): 5 (Level 5: growth control rate is above 85%) | Weeding effect in post-emergence stage, Digitaria sanguinalis (Digitaria sanguinalis): 5 (Level 5: growth control rate is above 85%) | Weeding effect in post-emergence stage, Abutilon theophrasti (Abutilon theophrasti): 5 (Level 5: growth control rate is above 85%) | Weeding effect in post-emergence stage, Eleusine indica (Eleusine indica): 5 (Level 5: growth control rate is above 85%)

CCO/C(C)=N/OC(=O)[C@@H](C)O/N=C/c1cc(-n2c(=O)cc(C(F)(F)F)n(C)c2=O)c(F)cc1Cl [252(R)]
Weeding effect in post-emergence stage, Echinochloa crusgalli (Echinochloa crusgalli): 5 (Level 5: growth control rate is above 85%) | Weeding effect in post-emergence stage, Setaria viridis (Setaria viridis): 5 (Level 5: growth control rate is above 85%) | Weeding effect in post-emergence stage, Alopecurus japonicus (Alopecurus japonicus): 5 (Level 5: growth control rate is above 85%) | Weeding effect in post-emergence stage, Digitaria sanguinalis (Digitaria sanguinalis): 5 (Level 5: growth control rate is above 85%) | Weeding effect in post-emergence stage, Abutilon theophrasti (Abutilon theophrasti): 5 (Level 5: growth control rate is above 85%) | Weeding effect in post-emergence stage, Eleusine indica (Eleusine indica): 5 (Level 5: growth control rate is above 85%)

CCOC(O/N=C/c1cc(-n2c(=O)cc(C(F)(F)F)n(C)c2=O)c(F)cc1Cl)C(=O)OC (stereo not drawn) [Compound 331]
Weeding effect in post-emergence stage, Echinochloa crusgalli (Echinochloa crusgalli): 5 (Level 5: growth control rate is above 85%) | Weeding effect in post-emergence stage, Setaria viridis (Setaria viridis): 5 (Level 5: growth control rate is above 85%) | Weeding effect in post-emergence stage, Alopecurus japonicus (Alopecurus japonicus): 5 (Level 5: growth control rate is above 85%) | Weeding effect in post-emergence stage, Digitaria sanguinalis (Digitaria sanguinalis): 5 (Level 5: growth control rate is above 85%) | Weeding effect in post-emergence stage, Abutilon theophrasti (Abutilon theophrasti): 5 (Level 5: growth control rate is above 85%) | Weeding effect in post-emergence stage, Eleusine indica (Eleusine indica): 5 (Level 5: growth control rate is above 85%)

CC(O/N=C/c1cc(-n2c(=O)cc(C(F)(F)F)n(C)c2=O)c(F)cc1Cl)C(=O)NS(=O)(=O)N(C)C(C)C (stereo not drawn) [Compound 421]
Weeding effect in post-emergence stage, Echinochloa crusgalli (level) (Echinochloa crusgalli): 5 (Level 5: growth control rate is above 85%) | Weeding effect in post-emergence stage, Setaria viridis (level) (Setaria viridis): 5 (Level 5: growth control rate is above 85%) | Weeding effect in post-emergence stage, Alopecurus japonicus (level) (Alopecurus japonicus): 5 (Level 5: growth control rate is above 85%) | Weeding effect in post-emergence stage, Digitaria sanguinalis (level) (Digitaria sanguinalis): 5 (Level 5: growth control rate is above 85%) | Weeding effect in post-emergence stage, Abutilon theophrasti (level) (Abutilon theophrasti): 5 (Level 5: growth control rate is above 85%) | Weeding effect in post-emergence stage, Eleusine indica (level) (Eleusine indica): 5 (Level 5: growth control rate is above 85%)

C=CCCOC(=O)C(C)O/N=C/c1cc(-n2c(=O)cc(C(F)(F)F)n(C)c2=O)c(F)cc1Cl (racemic) [Compound 209]
Weeding effect in post-emergence stage, Echinochloa crusgalli (Echinochloa crusgalli): 5 (Level 5: growth control rate is above 85%) | Weeding effect in post-emergence stage, Setaria viridis (Setaria viridis): 5 (Level 5: growth control rate is above 85%) | Weeding effect in post-emergence stage, Alopecurus japonicus (Alopecurus japonicus): 5 (Level 5: growth control rate is above 85%) | Weeding effect in post-emergence stage, Digitaria sanguinalis (Digitaria sanguinalis): 5 (Level 5: growth control rate is above 85%) | Weeding effect in post-emergence stage, Abutilon theophrasti (Abutilon theophrasti): 5 (Level 5: growth control rate is above 85%) | Weeding effect in post-emergence stage, Eleusine indica (Eleusine indica): 5 (Level 5: growth control rate is above 85%)

CCOCCOC(=O)C(C)O/N=C/c1cc(-n2c(=O)cc(C(F)(F)F)n(C)c2=O)c(F)cc1Cl (stereo not drawn) [Compound 231]
Weeding effect in post-emergence stage, Echinochloa crusgalli (Echinochloa crusgalli): 5 (Level 5: growth control rate is above 85%) | Weeding effect in post-emergence stage, Setaria viridis (Setaria viridis): 5 (Level 5: growth control rate is above 85%) | Weeding effect in post-emergence stage, Alopecurus japonicus (Alopecurus japonicus): 5 (Level 5: growth control rate is above 85%) | Weeding effect in post-emergence stage, Digitaria sanguinalis (Digitaria sanguinalis): 5 (Level 5: growth control rate is above 85%) | Weeding effect in post-emergence stage, Abutilon theophrasti (Abutilon theophrasti): 5 (Level 5: growth control rate is above 85%) | Weeding effect in post-emergence stage, Eleusine indica (Eleusine indica): 5 (Level 5: growth control rate is above 85%)
